Peptide text beside a SMILES is read from it. * marks the point of attachment. Propyl(2R-PamO,3-PamO) = CCCCCCCCCCCCCCCC(=O)OC[C@H](C*)OC(=O)CCCCCCCCCCCCCCC
Key:
[1] = molecular target: T1, TLR2/TLR6 heterodimer (Homo sapiens, UniProt O60603+Q9Y2C9); assay: NF-κB-dependent reporter activity in 293 cells expressing the TLR2/TLR6 heterodimer; type: cell-based; set-up: NF-κB activation: scale not given here; details: in vitro activity, 293 cells expressing TLR2/TLR6
T1 construct: expressed in transfected cells; host or cells: 293 cells
Method: NF-κB-dependent reporter activity was measured in 293 cells that expressed the TLR2/YLR6 heterodimer. […] None of the non-palmitoylated corresponding peptides activated the NF-κB reporter (FIG. 18B). The peptide component of CBLB617 has a (−4) charge, which should prevent it from interacting with negatively charged cell surface markers. […] Table 5 summarizes the in vitro activity and solubility of all the compounds.

[2] = test system: ICR mice; assay: Immune status of mice rescued from TBI (spleen and thymus weight, histology, flagellin immunization); type: in vivo
Method: To check the status of their immune systems, ICR mice were exposed to lethal (10 Gy) or non-lethal (6 Gy) doses of TBI 24 hr after they had been injected (i.m.) with 3 μg CBLB601/mouse or PBS. Groups of five mice from each condition were sacrificed very three days and their spleens and thymuses were removed and weighed. The weights of the spleens were normalized to the body weights of the corresponding animals and the results are presented in FIG. 15. PBS-treated mice that were exposed to 6 Gy of radiation took about 13-14 days to restore their spleens to normal weights, whereas CBLB601-treated mice exposed to 6 Gy of radiation had normal spleen weights by day 8. […] It took a longer period of time (˜30 days) to restore the thymuses to normal weights (not shown).
The spleens and thymuses from control and CBLB601-injected mice were examined microscopically for morphological changes at 3, 10 and 30 days after irradiation. […] There was no evidence of recovery of the splenic white pulp depletion in either group at day 10. Regenerative lymphoid hyperplasia in the thymus was evident in both groups at day 10, with the regeneration slightly more advanced in the control that in the CBLB601-treated mice.
To test the immune response of mice rescued from a lethal dose of gamma-irradiation (10 Gy of TBI) by CBLB601, several groups of such mice were subjected to immunization with a strong antigen, Salmonella flagellin. The mice were first immunized at 8, 18, or 20 weeks after irradiation, at which time they were 18, 25, and 33 weeks of age, respectively. Non-irradiated naïve mice at 29 weeks of age were used as a positive control for the immune response. The mice received a boost of flagellin one week after the first immunization, and another boost three weeks after the 2nd boost; anti-flagellin antibody titers were measured in mouse serum. To test the secondary immune response, the mice were bled again a month later to insure reduction of the antibody titers. This was followed by a 3rd boost of the antigen injection and measurement of anti-flagellin antibodies titers 10 days later. At the time of the 3rd boost, the irradiation mice were 38, 30, and 23 weeks old, and the control mice were 34 weeks old.

T1 sequence (O60603 21-784): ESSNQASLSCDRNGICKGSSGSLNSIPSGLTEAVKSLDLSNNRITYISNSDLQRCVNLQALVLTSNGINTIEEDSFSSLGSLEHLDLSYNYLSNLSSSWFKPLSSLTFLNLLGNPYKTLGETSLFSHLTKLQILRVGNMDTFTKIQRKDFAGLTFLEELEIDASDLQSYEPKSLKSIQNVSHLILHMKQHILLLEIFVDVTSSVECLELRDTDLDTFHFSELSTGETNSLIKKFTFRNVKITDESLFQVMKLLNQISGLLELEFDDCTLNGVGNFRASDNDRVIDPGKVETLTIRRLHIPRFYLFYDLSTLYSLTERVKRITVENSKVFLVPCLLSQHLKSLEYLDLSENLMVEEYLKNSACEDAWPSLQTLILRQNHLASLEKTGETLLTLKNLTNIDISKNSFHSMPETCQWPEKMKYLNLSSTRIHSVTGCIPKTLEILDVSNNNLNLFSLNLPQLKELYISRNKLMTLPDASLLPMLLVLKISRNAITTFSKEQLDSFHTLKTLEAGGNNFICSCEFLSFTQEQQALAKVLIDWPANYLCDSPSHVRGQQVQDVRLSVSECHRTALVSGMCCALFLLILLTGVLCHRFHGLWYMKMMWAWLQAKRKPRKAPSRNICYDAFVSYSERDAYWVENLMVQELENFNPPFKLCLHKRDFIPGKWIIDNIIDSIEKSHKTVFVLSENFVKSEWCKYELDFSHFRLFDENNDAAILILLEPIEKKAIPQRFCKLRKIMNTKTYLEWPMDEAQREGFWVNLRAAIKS
T1 sequence (Q9Y2C9 32-796): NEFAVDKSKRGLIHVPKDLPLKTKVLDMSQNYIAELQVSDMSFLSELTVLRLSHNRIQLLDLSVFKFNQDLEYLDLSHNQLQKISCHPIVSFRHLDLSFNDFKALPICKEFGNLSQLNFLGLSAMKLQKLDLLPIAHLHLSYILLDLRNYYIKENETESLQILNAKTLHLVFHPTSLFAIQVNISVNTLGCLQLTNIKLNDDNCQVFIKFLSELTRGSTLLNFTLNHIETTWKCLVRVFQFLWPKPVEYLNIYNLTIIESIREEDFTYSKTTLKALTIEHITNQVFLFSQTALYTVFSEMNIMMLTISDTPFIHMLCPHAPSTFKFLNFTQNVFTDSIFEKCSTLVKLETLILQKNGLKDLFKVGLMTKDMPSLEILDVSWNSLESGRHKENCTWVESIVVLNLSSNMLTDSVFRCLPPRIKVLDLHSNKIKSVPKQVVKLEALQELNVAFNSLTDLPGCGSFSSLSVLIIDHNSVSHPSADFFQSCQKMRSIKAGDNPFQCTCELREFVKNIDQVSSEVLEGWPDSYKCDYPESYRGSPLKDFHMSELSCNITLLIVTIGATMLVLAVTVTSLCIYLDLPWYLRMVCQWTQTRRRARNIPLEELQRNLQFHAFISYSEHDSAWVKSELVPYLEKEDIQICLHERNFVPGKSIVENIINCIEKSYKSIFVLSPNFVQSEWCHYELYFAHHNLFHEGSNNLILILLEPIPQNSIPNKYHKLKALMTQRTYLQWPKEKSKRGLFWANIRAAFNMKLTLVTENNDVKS

## CCCCCCCCCCCCCCCC(=O)OC[C@H](CSC[C@H](N)C(=O)N[C@@H](CO)C(=O)N[C@@H](CCCCN)C(=O)N[C@@H](CCCCN)C(=O)N[C@@H](CCCCN)C(=O)N[C@@H](CCCCN)C(=O)O)OC(=O)CCCCCCCCCCCCCCC [CBLB601, R-PAM2C-SKKKK] (H-C(Propyl(2R-PamO,3-PamO))SKKKK-OH)
[1]
  NF-κB activation: 100
[2]; 3 μg/mouse i.m. 24 hr before TBI, not shown
  time to restore the thymuses to normal weights: ~30 days
[2]; 6 Gy TBI, 3 μg/mouse i.m. 24 hr before
  day by which spleen weights were normal: ≤ 8 days
[2]; 10 Gy TBI, 3 μg/mouse i.m. 24 hr before
  day by which spleen weights were completely restored: 13 to 14 days
[2]; 10 days post-irradiation, 10 Gy
  spleen histology, extramedullary hematopoiesis: mild to moderate multifocal extramedullary hematopoiesis (EMH)
[2]; mice rescued from 10 Gy TBI, immunized 8, 18 or 20 weeks after irradiation
  humoral immune response against flagellin: robust humoral immune response against flagellin that was indistinguishable from that of the naïve control mice

From patent US8008260B2, “Methods of protecting against apoptosis using lipopeptides” (Cleveland Clinic Foundation, priority 2005, dated 2011)
